Experimental data: patent US20240108760A1 (priority 2021, published 2024)
“Also recorded” adds a separate entry of the source. Like-named read-outs stand apart in the source and are kept apart here.

B1: CODA71: chimeric LGIC: human α7-nAChR ligand binding domain with GlyRα1 Cys-loop, fused to human GlyRα1 ion pore domain; SEQ ID NO: 33 (protein)
chain: MRCSPGGVWLALAASLLHVSLQGEFQRKLYKELVKNYNPLERPVANDSQPLTVYFSLSLLQIMDVDEKNQVLTTNIWLQMSWTDHYLQWNVSEYPGVKTVRFPDGQIWKPDILLYNSADERFDATFHTNVLVNSSGHCQYLPPGIFKSSCPMDLKNFPMDVQTCKLKFGSWSYGGWSLDLQMQEADISGYIPNGEWDLVGIPGKRSERFYECCKEPYPDVTFTVTMRRRMGYYLIQMYIPSLLIVILSWISFWINMDAAPARVGLGITTVLTMTTQSSGSRASLPKVSYVKAIDIWMAVCLLFVFSALLEYAAVNFVSRQHKELLRFRRKRRHHKSPMLNLFQEDEAGEGRFNFSAYGMGPACLQAKDGISVKGANNSNTTNPPPAPSKSPEEMRKLFIQRAKKIDKISRIGFPMAFLIFNMFYWIIYKIVRREDVHNQ

Key:
[1] = target: T1, CODA71 chimeric receptors (Homo sapiens, UniProt P36544, F159M/H163T/I152M/R155K/V154L/W156N/Y151P); test: Whole cell current clamp recording of CA1 neurons in acute slices, TC-5619 bath application; assay type: cell-based, C57BL/6 mice
[2] = target: T1, CODA71 chimeric receptors; test: Evoked hippocampal seizure threshold, perforant pathway electrical stimulation; assay type: in vivo, C57BL/6 mice; settings: for increase of minimal threshold potential to evoke electrographic seizures: i.p. TC-5619 (100 mg/kg)
Procedure: (§1) Changes to evoked hippocampal seizure thresholds were measured in response to perforant pathway electrical stimulation. For spontaneous seizure experiments, mice were unilaterally injected intrahippocampally with kainic acid (KA) to induce epilepsy, 3 weeks prior to AAV9 injection and EEG electrode implantation.
In one set of animal studies, two weeks prior to seizure threshold testing, CODA71 were bilaterally-expressed in CA1/DG, along with bipolar electrode placement in CAT and the perforant pathway. 45 minutes prior to threshold testing, mice received 100 mg/kg TC-5619 or saline via i.p. injection. Electrical stimulation (1 sec at 60 Hz, 1 ms pulses) of increasing amplitude was delivered every 100 seconds, until electrographic seizures were evoked (FIG. 29).
Here evoked seizure thresholds were determined by monitoring responses to increasing amplitude electrical stimulation and as the minimal stimulation amplitude required to evoke sustained epileptic form activity in each trial.

[3] = target: T1, CODA71 chimeric receptors; test: Spontaneous seizures in the intrahippocampal kainic acid focal epilepsy model (chronic EEG); assay type: in vivo, C57BL/6 mice; settings: for focal seizures (overall conclusion): CODA71 delivered by AAV9 to hippocampus, activated by TC-5619
Procedure: as §1
In one set of animal studies, seven weeks prior to testing of neuron activities, kainic acid was unilaterally injected into CAT to evoke spontaneous seizures. Five weeks later, CODA71 receptor were bilaterally expressed in CA1/DG, along with bipolar electrode placement in CAT for recording EEG (FIG. 32). Spontaneous seizures were tracked with chronic EEG recordings. On alternating days, mice received two i.p. injections of either 100 mg/kg TC-5619 or saline, 2 hrs apart.

[4] = test system: hippocampal neurons; test: Hippocampal expression of CODA71 receptor after AAV9 delivery; assay type: in vivo, C57BL/6 mice; settings: hSyn promoter
[5] = CODA71 vector injected mice, 100 mg/kg TC-5619 i.p. 45 minutes prior
[6] = scrambled control vector injected mice, TC-5619

Molecule	neuronal / CA1 action potential firing, excitability [1]	rheobase [1]	neuron property change in presence of bungarotoxin (BTX) ([1]; CODA71 vector vs scrambled control vector, α7-nAChR ligand binding domain inhibited by BTX)	intrinsic properties of whole cell recorded neurons (RMP, input resistance, rheobase, AP count) ([1]; after 1 minute application of 150 nM TC-5619)	increase of minimal threshold potential to evoke electrographic seizures ([2]; CODA71 animals, p=0.0166 vs scrambled controls)	electrically-evoked seizure threshold [2, 5]	electrically-evoked seizure threshold [2, 6]	increase of minimal threshold potential to evoke electrographic seizures ([2]; scrambled controls)	focal seizures (overall conclusion) [3]	electrographic seizure duration ([3]; CODA71 vector mice, KA epileptic, i.p. TC-5619 100 mg/kg, p=0.0011, 100 mg/kg)	electrographic / spontaneous seizure frequency ([3]; CODA71 vector mice, KA epileptic, i.p. TC-5619 100 mg/kg, p=0.0325, 100 mg/kg)	spontaneous seizure frequency and duration [3, 6]	expression of CODA71 receptor in hippocampal / CA1 neurons [4]	neuronal / CA1 action potential firing, excitability ([1]; acute slices, CODA71 transduced, 1-minute bath application of 150 nM TC-5619)
O=C(N[C@@H]1C2CCN(CC2)[C@H]1Cc1cccnc1)c1cc2ccccc2o1 [TC-5619]	suppressed CA1 action potential firing	368±39.7 pA	little property change	rapidly changed	139±48.0%	increased more	did not change seizure thresholds	−10±13.2%	ameliorate spontaneous focal seizures	significantly reduced; also recorded: substantial decrease in seizure duration	significantly reduced; also recorded: dropped dramatically; also recorded: prolonged decrease in seizure frequency	little change; also recorded: No such effect was observed	–	–
B1	–	–	–	–	–	increased	–	–	effectively suppress focal seizure; also recorded: ameliorate spontaneous focal seizures; also recorded: prevented both evoked and spontaneous focal seizures	–	–	–	expressed well; also recorded: effective expression	effectively suppress neuronal firing; also recorded: successfully suppressed hippocampal neuronal excitability
